Measurements reported in ChEMBL document CHEMBL5352497, “Aromatic hydrazides: A potential solution for Acinetobacter baumannii infections” (Eur J Med Chem, 2023).
≈ marks a conversion by molar mass, not a printed value.

Tests used:
[1] = Hemolytic activity in mouse RBC at 8 ug/ml incubated for 1 hr; type: toxicity, cell-based, Erythrocyte; settings: red blood cells (erythrocytes), at 8 µg/mL, read-out: Activity
Erythrocyte = assay: Hemolytic activity in mouse RBC at 32 ug/ml incubated for 1 hr; type: toxicity, cell-based; settings: erythrocyte, 1 h, dose 32 µg/ml
HEK293 = assay: Cytotoxicity against HEK293 cells at 8 ug/ml; type: toxicity, cell-based; settings: human, dose 8 µg/ml
Salmonella enterica = assay: Antibacterial activity against Salmonella enterica ATCC 14028; type: functional
Pseudomonas aeruginosa = assay: Antibacterial activity against Pseudomonas aeruginosa ATCC 27853; type: functional
Acinetobacter baumannii [2] = assay: Antibacterial activity against Acinetobacter baumannii BAA1605; type: functional
Acinetobacter baumannii [3] = assay: Antibacterial activity against Acinetobacter baumannii ATCC 19606; type: functional
Klebsiella pneumoniae = assay: Antibacterial activity against Klebsiella pneumoniae ATCC 27736; type: functional
Enterobacter cloacae = assay: Antibacterial activity against Enterobacter cloacae ATCC 13047; type: functional
Escherichia coli = assay: Antibacterial activity against Escherichia coli MC1061; type: functional
Bacillus anthracis = assay: Antibacterial activity against Bacillus anthracis Sterne F32; type: functional
[4] = system: Staphylococcus epidermidis; assay: Antibacterial activity against Staphylococcus epidermidis ATCC 12228; type: functional
Staphylococcus aureus = assay: Antibacterial activity against Staphylococcus aureus ATCC 25923; type: functional

## O=C(NNc1ccc(Cl)cc1)c1cnccn1
[1]
  hemolysis at 1 h, 8 ug/ml: < 10%
Erythrocyte
  Activity: Non-Toxic
HEK293
  Activity: Non-Toxic

## O=C(NNc1ccc(Cl)cc1)c1ccco1
[1]
  hemolysis at 1 h, 8 ug/ml: < 10%
Salmonella enterica
  MIC: 16 µg/mL (≈ 67.6 µM)
Pseudomonas aeruginosa
  MIC: > 64 µg/mL
Acinetobacter baumannii [2]
  MIC: ≤ 0.125 µg/mL
Acinetobacter baumannii [3]
  MIC: 0.5 µg/mL (≈ 2.11 µM)
Klebsiella pneumoniae
  MIC: 16 µg/mL (≈ 67.6 µM)
Enterobacter cloacae
  MIC: 4 µg/mL (≈ 16.9 µM)
Escherichia coli
  MIC: 16 µg/mL (≈ 67.6 µM)
Erythrocyte
  Activity: Non-Toxic
Bacillus anthracis
  MIC: > 64 µg/mL
[4]
  MIC: 64 µg/mL (≈ 270 µM)
HEK293
  Activity: Non-Toxic
Staphylococcus aureus
  MIC: 64 µg/mL (≈ 270 µM)

## O=C(NNc1ccc(Cl)cc1)c1ccccn1
[1]
  hemolysis at 1 h, 8 ug/ml: < 10%
Salmonella enterica
  MIC: 64 µg/mL (≈ 258 µM)
Pseudomonas aeruginosa
  MIC: > 64 µg/mL
Acinetobacter baumannii [2]
  MIC: 0.25 µg/mL (≈ 1.01 µM)
Acinetobacter baumannii [3]
  MIC: 0.25 µg/mL (≈ 1.01 µM)
Klebsiella pneumoniae
  MIC: 64 µg/mL (≈ 258 µM)
Enterobacter cloacae
  MIC: 64 µg/mL (≈ 258 µM)
Escherichia coli
  MIC: 16 µg/mL (≈ 64.6 µM)
Erythrocyte
  Activity: Non-Toxic
Bacillus anthracis
  MIC: > 64 µg/mL
[4]
  MIC: > 64 µg/mL
HEK293
  Activity: Non-Toxic
Staphylococcus aureus
  MIC: > 64 µg/mL

## O=C(NNc1ccc(Cl)cc1)c1cccc(F)n1
[1]
  hemolysis at 1 h, 8 ug/ml: < 10%
Salmonella enterica
  MIC: 16 µg/mL (≈ 60.2 µM)
Pseudomonas aeruginosa
  MIC: > 64 µg/mL
Acinetobacter baumannii [2]
  MIC: ≤ 0.125 µg/mL
Acinetobacter baumannii [3]
  MIC: ≤ 0.125 µg/mL
Klebsiella pneumoniae
  MIC: 16 µg/mL (≈ 60.2 µM)
Enterobacter cloacae
  MIC: 16 µg/mL (≈ 60.2 µM)
Escherichia coli
  MIC: 16 µg/mL (≈ 60.2 µM)
Erythrocyte
  Activity: Non-Toxic
Bacillus anthracis
  MIC: > 64 µg/mL
[4]
  MIC: > 64 µg/mL
HEK293
  Activity: Non-Toxic
Staphylococcus aureus
  MIC: > 64 µg/mL

## O=C(NNc1cccc(F)c1)c1cnc2ccccc2n1
[1]
  hemolysis at 1 h, 8 ug/ml: < 10%
Erythrocyte
  Activity: Non-Toxic
HEK293
  Activity: Non-Toxic

## CCC(=O)NNc1cccc(F)c1
[1]
  hemolysis at 1 h, 8 ug/ml: < 10%
Erythrocyte
  Activity: Non-Toxic
HEK293
  Activity: Non-Toxic

## O=C(NNc1ccc(Cl)cc1)c1cccnc1
[1]
  hemolysis at 1 h, 8 ug/ml: < 10%
Erythrocyte
  Activity: Non-Toxic
HEK293
  Activity: Non-Toxic

## O=C(NNc1ccc(Cl)cc1)c1ccc2ccccc2n1
[1]
  hemolysis at 1 h, 8 ug/ml: < 10%
Salmonella enterica
  MIC: > 64 µg/mL
Pseudomonas aeruginosa
  MIC: > 64 µg/mL
Acinetobacter baumannii [2]
  MIC: 0.5 µg/mL (≈ 1.68 µM)
Acinetobacter baumannii [3]
  MIC: 0.5 µg/mL (≈ 1.68 µM)
Klebsiella pneumoniae
  MIC: > 64 µg/mL
Enterobacter cloacae
  MIC: > 64 µg/mL
Escherichia coli
  MIC: 16 µg/mL (≈ 53.7 µM)
Erythrocyte
  Activity: Non-Toxic
Bacillus anthracis
  MIC: > 64 µg/mL
[4]
  MIC: > 64 µg/mL
HEK293
  Activity: Non-Toxic
Staphylococcus aureus
  MIC: > 64 µg/mL

## O=C(NNc1ccc(Cl)cc1)c1cnc2ccccc2n1
[1]
  hemolysis at 1 h, 8 ug/ml: < 10%
Erythrocyte
  Activity: Non-Toxic
HEK293
  Activity: Non-Toxic

## CCOC(=O)CNNC(=O)c1ccc(F)cn1
[1]
  hemolysis at 1 h, 8 ug/ml: < 10%
Erythrocyte
  Activity: Non-Toxic
HEK293
  Activity: Non-Toxic

## C=CC(=O)NNc1ccc(Cl)cc1
[1]
  hemolysis at 1 h, 8 ug/ml: < 10%
Salmonella enterica
  MIC: 16 µg/mL (≈ 81.4 µM)
Pseudomonas aeruginosa
  MIC: > 64 µg/mL
Acinetobacter baumannii [2]
  MIC: 0.25 µg/mL (≈ 1.27 µM)
Acinetobacter baumannii [3]
  MIC: 0.25 µg/mL (≈ 1.27 µM)
Klebsiella pneumoniae
  MIC: 16 µg/mL (≈ 81.4 µM)
Enterobacter cloacae
  MIC: 16 µg/mL (≈ 81.4 µM)
Escherichia coli
  MIC: 16 µg/mL (≈ 81.4 µM)
Erythrocyte
  Activity: Non-Toxic
Bacillus anthracis
  MIC: > 64 µg/mL
[4]
  MIC: 64 µg/mL (≈ 325 µM)
HEK293
  Activity: Non-Toxic
Staphylococcus aureus
  MIC: 64 µg/mL (≈ 325 µM)

## O=C(NNc1cccc(F)c1)c1cccc(Br)n1
[1]
  hemolysis at 1 h, 8 ug/ml: < 10%
Erythrocyte
  Activity: Non-Toxic
HEK293
  Activity: Non-Toxic

## O=C(NNc1cccc(F)c1)c1ncc(F)cc1F
[1]
  hemolysis at 1 h, 8 ug/ml: < 10%
Erythrocyte
  Activity: Non-Toxic
HEK293
  Activity: Non-Toxic

## O=C(NNc1cccc(F)c1)c1nc(F)ccc1F
[1]
  hemolysis at 1 h, 8 ug/ml: < 10%
Erythrocyte
  Activity: Non-Toxic
HEK293
  Activity: Non-Toxic

## CCOC(=O)CNNC(=O)c1cccc(F)n1
[1]
  hemolysis at 1 h, 8 ug/ml: < 10%
Erythrocyte
  Activity: Non-Toxic
HEK293
  Activity: Non-Toxic

## COc1ccc(NNC(=O)c2ccc(F)cn2)cc1
[1]
  hemolysis at 1 h, 8 ug/ml: < 10%
Salmonella enterica
  MIC: > 64 µg/mL
Pseudomonas aeruginosa
  MIC: > 64 µg/mL
Acinetobacter baumannii [2]
  MIC: 0.5 µg/mL (≈ 1.91 µM)
Acinetobacter baumannii [3]
  MIC: 1 µg/mL (≈ 3.83 µM)
Klebsiella pneumoniae
  MIC: > 64 µg/mL
Enterobacter cloacae
  MIC: > 64 µg/mL
Escherichia coli
  MIC: > 64 µg/mL
Erythrocyte
  Activity: Non-Toxic
Bacillus anthracis
  MIC: > 64 µg/mL
[4]
  MIC: > 64 µg/mL
HEK293
  Activity: Non-Toxic
Staphylococcus aureus
  MIC: > 64 µg/mL

## COc1cccc(NNC(=O)c2ccccn2)c1
[1]
  hemolysis at 1 h, 8 ug/ml: < 10%
Erythrocyte
  Activity: Non-Toxic
HEK293
  Activity: Non-Toxic

## O=C(NNc1ccc(Cl)cc1)c1ccccc1
[1]
  hemolysis at 1 h, 8 ug/ml: < 10%
Salmonella enterica
  MIC: 64 µg/mL (≈ 259 µM)
Pseudomonas aeruginosa
  MIC: > 64 µg/mL
Acinetobacter baumannii [2]
  MIC: 0.5 µg/mL (≈ 2.03 µM)
Acinetobacter baumannii [3]
  MIC: 0.25 µg/mL (≈ 1.01 µM)
Klebsiella pneumoniae
  MIC: 16 µg/mL (≈ 64.9 µM)
Enterobacter cloacae
  MIC: 16 µg/mL (≈ 64.9 µM)
Escherichia coli
  MIC: 16 µg/mL (≈ 64.9 µM)
Erythrocyte
  Activity: Non-Toxic
Bacillus anthracis
  MIC: > 64 µg/mL
[4]
  MIC: 64 µg/mL (≈ 259 µM)
HEK293
  Activity: Non-Toxic
Staphylococcus aureus
  MIC: 64 µg/mL (≈ 259 µM)

## O=C(NNc1ccc(Cl)cc1)c1ncc(F)cc1F
[1]
  hemolysis at 1 h, 8 ug/ml: < 10%
Erythrocyte
  Activity: Non-Toxic
HEK293
  Activity: Non-Toxic

## O=C(NNC1CCCCC1)c1ccc2ccccc2n1
[1]
  hemolysis at 1 h, 8 ug/ml: < 10%
Salmonella enterica
  MIC: > 64 µg/mL
Pseudomonas aeruginosa
  MIC: > 64 µg/mL
Acinetobacter baumannii [2]
  MIC: > 64 µg/mL
Acinetobacter baumannii [3]
  MIC: > 64 µg/mL
Klebsiella pneumoniae
  MIC: > 64 µg/mL
Enterobacter cloacae
  MIC: > 64 µg/mL
Escherichia coli
  MIC: 64 µg/mL (≈ 238 µM)
Erythrocyte
  Activity: Non-Toxic
Bacillus anthracis
  MIC: > 64 µg/mL
[4]
  MIC: > 64 µg/mL
HEK293
  Activity: Non-Toxic
Staphylococcus aureus
  MIC: > 64 µg/mL

## O=C(NNc1cccc(F)c1)c1cccnc1
[1]
  hemolysis at 1 h, 8 ug/ml: < 10%
Erythrocyte
  Activity: Non-Toxic
HEK293
  Activity: Non-Toxic

## CCOC(=O)CNNC(=O)c1ccccn1
[1]
  hemolysis at 1 h, 8 ug/ml: < 10%
Erythrocyte
  Activity: Non-Toxic
HEK293
  Activity: Non-Toxic

## O=C(NNC1CCCCC1)c1cccnc1
[1]
  hemolysis at 1 h, 8 ug/ml: < 10%
Erythrocyte
  Activity: Non-Toxic
HEK293
  Activity: Non-Toxic

## O=C(NNc1cccc(F)c1)c1cc2ccccc2[nH]1
[1]
  hemolysis at 1 h, 8 ug/ml: < 10%
Erythrocyte
  Activity: Non-Toxic
HEK293
  Activity: Non-Toxic

## O=C(NNc1cccc(F)c1)c1cnccn1
[1]
  hemolysis at 1 h, 8 ug/ml: < 10%
Erythrocyte
  Activity: Non-Toxic
HEK293
  Activity: Non-Toxic

## O=C(NNC1CCCCC1)c1ccc(F)cc1F
[1]
  hemolysis at 1 h, 8 ug/ml: < 10%
Erythrocyte
  Activity: Non-Toxic
HEK293
  Activity: Non-Toxic

## O=C(NNc1cccc(F)c1)c1cccc(F)n1
[1]
  hemolysis at 1 h, 8 ug/ml: < 10%
Erythrocyte
  Activity: Non-Toxic
HEK293
  Activity: Non-Toxic

## O=C(NNc1ccc(Cl)cc1)c1nc(F)ccc1F
[1]
  hemolysis at 1 h, 8 ug/ml: < 10%
Erythrocyte
  Activity: Non-Toxic
HEK293
  Activity: Non-Toxic

## CCOC(=O)CNNC(=O)c1ccc(F)cc1F
[1]
  hemolysis at 1 h, 8 ug/ml: < 10%
Erythrocyte
  Activity: Non-Toxic
HEK293
  Activity: Non-Toxic

## O=C(NNC1CCCCC1)c1cnccn1
[1]
  hemolysis at 1 h, 8 ug/ml: < 10%
Erythrocyte
  Activity: Non-Toxic
HEK293
  Activity: Non-Toxic

## O=C(NNc1cccc(F)c1)c1ccc(Br)cn1
[1]
  hemolysis at 1 h, 8 ug/ml: < 10%
Erythrocyte
  Activity: Non-Toxic
HEK293
  Activity: Non-Toxic

## O=C(NNc1cccc(F)c1)c1ccc(F)cc1F
[1]
  hemolysis at 1 h, 8 ug/ml: < 10%
Erythrocyte
  Activity: Non-Toxic
HEK293
  Activity: Non-Toxic

## O=C(NNc1cccc(F)c1)c1ccccn1
[1]
  hemolysis at 1 h, 8 ug/ml: < 10%
Erythrocyte
  Activity: Non-Toxic
HEK293
  Activity: Non-Toxic

## O=C(NNc1cccc(F)c1)c1ccccc1
[1]
  hemolysis at 1 h, 8 ug/ml: < 10%
Erythrocyte
  Activity: Non-Toxic
HEK293
  Activity: Non-Toxic

## CCOC(=O)CNNC(=O)c1cnccn1
[1]
  hemolysis at 1 h, 8 ug/ml: < 10%
Erythrocyte
  Activity: Non-Toxic
HEK293
  Activity: Non-Toxic

## O=C(NNc1cccc(F)c1)c1ccco1
[1]
  hemolysis at 1 h, 8 ug/ml: < 10%
Erythrocyte
  Activity: Non-Toxic
HEK293
  Activity: Non-Toxic
